One assay addresses T1, USP7 (Homo sapiens, UniProt Q93009).
T1 construct: USP7, construct USP7 (208-1102) 6*His, Viva Biotech; 6xHis (C); purchased Viva Biotech
The assay is described as follows: USP7 Assay A (Ubitquin-Rhodamine 110 Assay). Conditions: USP7 activity in USP7 assay A and B (table does not say which assay per compound); read-out: USP7_IC50. The assay is classed as biochemical. Put shortly:
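Enzyme and compound sat together for 30 min before Ub-Rh110 was added, in buffer of 20 mM Tris-HCl (pH 8.0), 1 mM GSH, 0.03% BGG and 0.01% Triton X-100.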
T1 sequence (Q93009 208-1102): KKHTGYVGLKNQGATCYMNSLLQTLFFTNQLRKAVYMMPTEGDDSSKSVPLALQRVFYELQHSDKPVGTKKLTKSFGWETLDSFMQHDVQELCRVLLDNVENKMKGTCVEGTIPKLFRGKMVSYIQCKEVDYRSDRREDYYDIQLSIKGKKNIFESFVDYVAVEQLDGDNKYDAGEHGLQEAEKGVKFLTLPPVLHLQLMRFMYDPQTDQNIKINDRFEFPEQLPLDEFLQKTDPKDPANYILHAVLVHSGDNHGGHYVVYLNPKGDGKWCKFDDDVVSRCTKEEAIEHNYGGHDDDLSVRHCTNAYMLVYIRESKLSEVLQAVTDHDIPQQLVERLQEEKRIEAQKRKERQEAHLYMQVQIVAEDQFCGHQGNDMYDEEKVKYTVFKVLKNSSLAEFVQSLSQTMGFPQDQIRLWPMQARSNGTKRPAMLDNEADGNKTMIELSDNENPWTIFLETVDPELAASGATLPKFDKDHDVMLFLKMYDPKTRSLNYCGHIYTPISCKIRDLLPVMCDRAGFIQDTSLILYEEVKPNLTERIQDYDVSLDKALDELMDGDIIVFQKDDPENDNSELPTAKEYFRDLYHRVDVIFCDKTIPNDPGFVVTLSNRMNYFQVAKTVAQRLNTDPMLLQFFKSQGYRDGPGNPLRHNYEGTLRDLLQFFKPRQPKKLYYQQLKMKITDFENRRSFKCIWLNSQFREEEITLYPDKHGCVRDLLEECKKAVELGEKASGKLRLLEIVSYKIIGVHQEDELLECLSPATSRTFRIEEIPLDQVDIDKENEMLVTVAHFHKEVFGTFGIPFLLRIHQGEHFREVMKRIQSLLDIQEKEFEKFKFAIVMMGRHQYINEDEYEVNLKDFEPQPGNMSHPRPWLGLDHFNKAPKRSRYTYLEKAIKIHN
With `O=C(c1ccc(F)cc1)N1CCC(O)(Cn2cnc3c(cnn3-c3ccc(N4CCCc5cnccc54)cc3)c2=O)CC1` [Compound I-1729], the IC50 is 1 to 10 µM.

Consider `CC1(C(=O)N2CCC(O)(Cn3cnc4c(cnn4-c4cccc(N5CC(C6CCOCC6)C5)c4)c3=O)CC2)CC1` [Compound I-1732], for which the IC50 was 0.2 to 1 µM. The same measure, in the same setting: with `Cc1ncc(C(=O)N2CCC(O)(Cn3cnc4c(cnn4-c4ccc(-n5cc(Cl)cn5)cc4)c3=O)CC2)o1` [Compound I-1733] the figure was less than 0.2 µM. As for `O=C(c1ccc(F)cc1)N1CCC(O)(Cn2cnc3c(cnn3-c3ccc(-n4cc(CO)cn4)cc3)c2=O)CC1` [Compound I-1734], the IC50 was 0.2 to 1 µM. Still for that read-out and setting: with `O=C(c1ccc(N2CCN3CCCC3C2)cc1)N1CCC(O)(Cn2cnc3c(cnn3-c3ccc(F)cc3)c2=O)CC1` (centres unmarked) [Compound I-1735] the figure was 1 to 10 µM; with `O=C(C1CC1)N1CCC(O)(Cn2cnc3c(cnn3-c3ccc(-c4cnn5ccccc45)cc3)c2=O)CC1` [Compound I-1736], 0.2 to 1 µM. On the same count and under the same terms, with `O=C(C1CC1)N1CCC(O)(Cn2cnc3c(cnn3-c3ccc(-c4cncc(C(F)(F)F)c4)cc3)c2=O)CC1` [Compound I-1737] the figure was 1 to 10 µM. On the same count and under the same terms, the same measure for `O=C(C1CC1)N1CCC(O)(Cn2cnc3c(cnn3-c3ccc(-c4cccc5oncc45)cc3)c2=O)CC1` [Compound I-1738]: 1 to 10 µM; for `O=C(C1CC1)N1CCC(O)(Cn2cnc3c(cnn3-c3ccc(N4CCC5(CC4)CC(O)C5)cc3)c2=O)CC1` [Compound I-1739]: 1 to 10 µM; for `O=C(c1ccc(F)cc1)N1CCC(O)(Cn2cnc3c(cnn3-c3ccc(N4CCC5(CC4)CC(CO)C5)cc3)c2=O)CC1` [Compound I-1740]: 0.2 to 1 µM.

With `O=C(C1CC1)N1CCC(O)(Cn2cnc3c(cnn3-c3ccc(N4CCC5(CC4)CC(CO)C5)cc3)c2=O)CC1` [Compound I-1741], the IC50 was 0.2 to 1 µM. Turning to `O=C(c1ccc(F)cc1)N1CCC(O)(Cn2cnc3c(cnn3-c3ccc(-c4cnn(C5CCS(=O)(=O)CC5)c4)cc3)c2=O)CC1` [Compound I-1744], the IC50 lay in the range of 0.2 to 1 µM.

On to `O=C(c1ccc(F)cc1)N1CCC(O)(Cn2cnc3c(cnn3-c3ccc(-c4cnn(C5CS(=O)(=O)C5)c4)cc3)c2=O)CC1` [Compound I-1745], for which the IC50 was 0.2 to 1 µM. On the same count and under the same terms, the same measure for `O=C(c1ccc(F)cc1)N1CCC(O)(Cn2cnc3c(cnn3-c3ccc(-c4cnn(C5CC5)c4)cc3)c2=O)CC1` [Compound I-1746]: 0.2 to 1 µM.

Turning to `CC(=O)N1C[C@@H]2C[C@H]1CN2c1ccc(-n2ncc3c(=O)n(CC4(O)CCN(C(=O)C5(C)CC5)CC4)cnc32)cc1` [Compound I-1747], the IC50 was in the range of 0.2 to 1 µM. The same measure, in the same setting: the same measure for `CC(=O)N1CC2CC1CN2c1cccc(-n2ncc3c(=O)n(CC4(O)CCN(C(=O)C5(C)CC5)CC4)cnc32)c1` (centres unmarked) [Compound I-1748]: 0.2 to 1 µM; for `CC(=O)N1CC2CC1CN2c1ccc(-n2ncc3c(=O)n(CC4(O)CCN(C(=O)C5(C)CC5)CC4)cnc32)cc1` (centres unmarked) [Compound I-1749]: 0.2 to 1 µM. Same read-out and setting: the same measure for `COCCN1CCN(c2cccc(-n3ncc4c(=O)n(CC5(O)CCN(C(=O)C6(C)CC6)CC5)cnc43)c2)CC1` [Compound I-1750]: 0.2 to 1 µM; for `CC1(C(=O)N2CCC(O)(Cn3cnc4c(cnn4-c4cccc(N5CCC(C#N)CC5)c4)c3=O)CC2)CC1` [Compound I-1751]: 0.2 to 1 µM; for `CC1(C(=O)N2CCC(O)(Cn3cnc4c(cnn4-c4ccc(N5CCC(C#N)CC5)cc4)c3=O)CC2)CC1` [Compound I-1752]: 0.2 to 1 µM. `Cn1ncc2c(=O)n(CC3(O)CCN(C(=O)CC(C(F)F)n4ccc(F)n4)CC3)cnc21` (centres unmarked) [Compound I-1753]: the IC50 lay in the range of 0.2 to 1 µM. Same read-out and setting: the same measure for `CC1(C(=O)N2CCC(O)(Cn3cnc4c(cnn4-c4ccc(-n5ccc(F)n5)cc4)c3=O)CC2)CC1` [Compound I-1754]: 0.2 to 1 µM; for `O=C(C1CC1)N1CCC(O)(Cn2cnc3c(cnn3-c3ccc(N4CCC5(CC4)CC5)cc3)c2=O)CC1` [Compound I-1755]: 1 to 10 µM; for `CC1(COc2ccc(-n3ncc4c(=O)n(CC5(O)CCN(C(=O)c6ccc(F)cc6)CC5)cnc43)cc2)COC1` [Compound I-1756]: 0.2 to 1 µM. Same read-out and setting: the same measure for `Cn1ncc2ccc(-c3ccc(-n4ncc5c(=O)n(CC6(O)CCN(C(=O)C7CC7)CC6)cnc54)cc3)cc21` [Compound I-1764]: 1 to 10 µM; for `O=C(C1CC1)N1CCC(O)(Cn2cnc3c(cnn3-c3ccc(-c4ccc5[nH]ccc5n4)cc3)c2=O)CC1` [Compound I-1768]: 0.2 to 1 µM.

The assay is the same for the next values; noted with them: USP7 assay A and B (table does not say which assay per compound); read-out: USP7_IC50.
In the case of `CC1(C(=O)N2CCC(O)(Cn3cnc4c(cnn4-c4ccc(-c5cnn(C(F)F)c5)cc4)c3=O)CC2)CC1` [Compound I-1800], the IC50 was less than 0.2 µM. Still for that read-out and setting: the same measure for `CC1(C(=O)N2CCC(O)(Cn3cnc4c(cnn4-c4ccc(OC5CC(F)(F)C5)cc4)c3=O)CC2)CC1` [Compound I-1801]: less than 0.2 µM. Same read-out and setting: the same measure for `O=C(C1CC1)N1CCC(O)(Cn2cnc3c(cnn3-c3cccc(-c4cnc(N5CCOCC5)nc4)c3)c2=O)CC1` [Compounds I-401]: 1 to 10 µM.

The record behind these values is patent US9902728B2, “Pyrrolo and pyrazolopyrimidines as ubiquitin-specific protease 7 inhibitors” (Forma Therapeutics, Inc., priority 2014, dated 2018).
